Each compound was assayed against T1, EP4 receptor (Homo sapiens, UniProt P35408) (assay: hEP4 cAMP assay (BT549 breast cancer cells, HTRF cAMP, PGE2 stimulation)). Details: antagonistic activity, PGE2 6 nM (EC80).
T1 construct: BT549 breast cancer cells, express high endogenous EP4 levels and very low EP2 levels; host or cells: BT549 breast cancer cells
Type: cell-based
How it was run: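 BT549 cells, with endogenous EP4 and very low EP2, were preincubated 45 min at room temperature with compound in HBSS/HEPES/BSA buffer with 2 mM IBMX. They were then stimulated 30 min with 6 nM PGE2 (EC80). cAMP was measured by HTRF competitive immunoassay against a calibrator; IC50 from duplicate dose-response as % of DMSO control.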

T1 sequence (P35408 whole entry): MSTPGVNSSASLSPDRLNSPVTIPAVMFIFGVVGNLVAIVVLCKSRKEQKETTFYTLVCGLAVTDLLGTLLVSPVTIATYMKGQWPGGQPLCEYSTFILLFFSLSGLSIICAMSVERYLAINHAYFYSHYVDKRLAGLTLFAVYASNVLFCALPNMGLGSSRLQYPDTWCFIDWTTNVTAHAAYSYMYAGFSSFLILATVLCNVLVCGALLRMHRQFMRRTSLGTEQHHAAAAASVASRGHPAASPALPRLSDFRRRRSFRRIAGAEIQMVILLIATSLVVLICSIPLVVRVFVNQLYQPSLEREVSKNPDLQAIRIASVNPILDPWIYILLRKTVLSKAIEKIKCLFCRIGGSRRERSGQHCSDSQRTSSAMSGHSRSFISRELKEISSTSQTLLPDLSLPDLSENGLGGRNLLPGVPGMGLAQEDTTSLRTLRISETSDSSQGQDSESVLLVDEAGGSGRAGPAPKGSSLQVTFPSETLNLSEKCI

| Structure (SMILES) | IC50 [µM] |
| --- | --- |
| Cc1cc(-c2cc(NCCc3c(C)oc4c(C)cc(F)cc34)ncn2)sc1C(=O)O [Example 2, 5-{6-[2-(5-Fluoro-2,7-dimethyl-benzofuran-3-yl)-ethylamino]-pyrimidin-4-yl}-3-methyl-thiophene-2-carboxylic acid] | 0.117 |
| Cc1cc(-c2cc(NCCc3c(C)sc4c(C)cccc34)ncn2)sc1C(=O)O [Example 3, 5-{6-[2-(2,7-Dimethyl-benzo[b]thiophen-3-yl)-ethylamino]-pyrimidin-4-yl}-3-methyl-thiophene-2-carboxylic acid] | 0.222 |
| Cc1cc(-c2cc(NCCc3c(C)oc4c(C)cc(Cl)cc34)ncn2)sc1C(=O)O [Example 4, 5-{6-[2-(5-Chloro-2,7-dimethyl-benzofuran-3-yl)-ethylamino]-pyrimidin-4-yl}-3-methyl-thiophene-2-carboxylic acid] | 0.394 |
| CSc1cc(-c2cc(NCCc3c(C)sc4c(C)cccc34)ncn2)ccc1C(=O)O [Example 14, 4-{6-[2-(2,7-Dimethyl-benzo[b]thiophen-3-yl)-ethylamino]-pyrimidin-4-yl}-2-methylsulfanyl-benzoic acid] | 0.105 |
| COc1ccc(Cl)c2c(CCNc3cc(-c4ccc(C(=O)O)c(SC)c4)ncn3)c(C)sc12 [Example 15, 4-{6-[2-(4-Chloro-7-methoxy-2-methyl-benzo[b]thiophen-3-yl)-ethylamino]-pyrimidin-4-yl}-2-methylsulfanyl-benzoic acid] | 0.134 |
| CSc1cc(-c2cc(NCCc3c(C)oc4c(C)cc(F)cc34)ncn2)ccc1C(=O)O [Example 16, 4-{6-[2-(5-Fluoro-2,7-dimethyl-benzofuran-3-yl)-ethylamino]-pyrimidin-4-yl}-2-methylsulfanyl-benzoic acid] | 0.189 |
| CSc1cc(-c2cc(NCCc3c(C)sc4c(C)cc(F)cc34)ncn2)ccc1C(=O)O [Example 17, 4-{6-[2-(5-Fluoro-2,7-dimethyl-benzo[b]thiophen-3-yl)-ethylamino]-pyrimidin-4-yl}-2-methylsulfanyl-benzoic acid] | 0.243 |
| CSc1cc(-c2cc(NCCc3c(C)oc4ccccc34)ncn2)ccc1C(=O)O [Example 18, 4-{6-[2-(2-Methyl-benzofuran-3-yl)-ethylamino]-pyrimidin-4-yl}-2-methylsulfanyl-benzoic acid] | 0.414 |
| CSc1cc(-c2cc(NCCc3c(C)sc4c(C)ccc(Cl)c34)ncn2)ccc1C(=O)O [Example 19, 4-{6-[2-(4-Chloro-2,7-dimethyl-benzo[b]thiophen-3-yl)-ethylamino]-pyrimidin-4-yl}-2-methylsulfanyl-benzoic acid] | 0.468 |
| CSc1cc(-c2cc(NCCc3c(C)sc4c(Cl)ccc(Cl)c34)ncn2)ccc1C(=O)O [Example 20, 4-{6-[2-(4,7-Dichloro-2-methyl-benzo[b]thiophen-3-yl)-ethylamino]-pyrimidin-4-yl}-2-methylsulfanyl-benzoic acid] | 0.532 |
| CSc1cc(-c2cc(NCCc3c(C)sc4c(C)c(F)ccc34)ncn2)ccc1C(=O)O [Example 21, 4-{6-[2-(6-Fluoro-2,7-dimethyl-benzo[b]thiophen-3-yl)-ethylamino]-pyrimidin-4-yl}-2-methylsulfanyl-benzoic acid] | 0.564 |
| CCc1oc2c(C)cc(F)cc2c1CCNc1cc(-c2ccc(C(=O)O)c(SC)c2)ncn1 [Example 22, 4-{6-[2-(2-Ethyl-5-fluoro-7-methyl-benzofuran-3-yl)-ethylamino]-pyrimidin-4-yl}-2-methylsulfanyl-benzoic acid] | 0.661 |
| CSc1cc(-c2cc(NCCc3c(C)sc4c(Cl)cc(F)cc34)ncn2)ccc1C(=O)O [Example 23, 4-{6-[2-(7-Chloro-5-fluoro-2-methyl-benzo[b]thiophen-3-yl)-ethylamino]-pyrimidin-4-yl}-2-methylsulfanyl-benzoic acid] | 0.667 |
| CSc1cc(-c2cc(NCCc3c(C)sc4ccccc34)ncn2)ccc1C(=O)O [Example 24, 4-{6-[2-(2-Methyl-benzo[b]thiophen-3-yl)-ethylamino]-pyrimidin-4-yl}-2-methylsulfanyl-benzoic acid] | 0.795 |
| CCOc1cc(-c2cc(NCCc3c(C)sc4c(C)ccc(F)c34)ncn2)sc1C(=O)O [Example 25, 3-Ethoxy-5-{6-[2-(4-fluoro-2,7-dimethyl-benzo[b]thiophen-3-yl)-ethylamino]-pyrimidin-4-yl}-thiophene-2-carboxylic acid] | 0.001 |
| CCOc1cc(-c2cc(NCCc3c(C)sc4c(OC)ccc(F)c34)ncn2)sc1C(=O)O [Example 28, 3-Ethoxy-5-{6-[2-(4-fluoro-7-methoxy-2-methyl-benzo[b]thiophen-3-yl)-ethylamino]-pyrimidin-4-yl}-thiophene-2-carboxylic acid] | 0.005 |
| CCOc1cc(-c2cc(NCCc3c(C)sc4c(C)ccc(Cl)c34)ncn2)sc1C(=O)O [Example 29, 5-{6-[2-(4-Chloro-2,7-dimethyl-benzo[b]thiophen-3-yl)-ethylamino]-pyrimidin-4-yl}-3-ethoxy-thiophene-2-carboxylic acid] | 0.009 |

| Structure (SMILES) | IC50 [µM] |
| --- | --- |
| CCOc1cc(-c2cc(NCCc3c(C)sc4c(OC)ccc(Cl)c34)ncn2)sc1C(=O)O [Example 30, 5-{6-[2-(4-Chloro-7-methoxy-2-methyl-benzo[b]thiophen-3-yl)-ethylamino]-pyrimidin-4-yl}-3-ethoxy-thiophene-2-carboxylic acid] | 0.011 |
| CCOc1cc(-c2cc(NCCc3c(C)oc4c(OC)cc(F)c(F)c34)ncn2)sc1C(=O)O [Example 31, 5-{6-[2-(4,5-Difluoro-7-methoxy-2-methyl-benzofuran-3-yl)-ethylamino]-pyrimidin-4-yl}-3-ethoxy-thiophene-2-carboxylic acid] | 0.013 |
| CCOc1cc(-c2cc(NCCc3c(C)sc4c(C)cc(F)cc34)ncn2)sc1C(=O)O [Example 32, 3-Ethoxy-5-{6-[2-(5-fluoro-2,7-dimethyl-benzo[b]thiophen-3-yl)-ethylamino]-pyrimidin-4-yl}-thiophene-2-carboxylic acid] | 0.013 |
| CCOc1cc(-c2cc(NCCc3csc4ccccc34)ncn2)sc1C(=O)O [Example 33, 5-[6-(2-Benzo[b]thiophen-3-yl-ethylamino)-pyrimidin-4-yl]-3-ethoxy-thiophene-2-carboxylic acid] | 0.018 |
| CCOc1cc(-c2cc(NCCc3c(C)oc4c(OC)ccc(F)c34)ncn2)sc1C(=O)O [Example 34, 3-Ethoxy-5-{6-[2-(4-fluoro-7-methoxy-2-methyl-benzofuran-3-yl)-ethylamino]-pyrimidin-4-yl}-thiophene-2-carboxylic acid] | 0.022 |
| CCOc1cc(-c2cc(NCCc3c(C)oc4c(Cl)cccc34)ncn2)sc1C(=O)O [Example 35, 5-{6-[2-(7-Chloro-2-methyl-benzofuran-3-yl)-ethylamino]-pyrimidin-4-yl}-3-ethoxy-thiophene-2-carboxylic acid] | 0.036 |
| CCOc1cc(-c2cc(NCCc3c(C)sc4c(C)cccc34)ncn2)sc1C(=O)O [Example 36, 5-{6-[2-(2,7-Dimethyl-benzo[b]thiophen-3-yl)-ethylamino]-pyrimidin-4-yl}-3-ethoxy-thiophene-2-carboxylic acid] | 0.044 |
| CCOc1cc(-c2cc(NCCc3c(C)oc4c(C)cc(F)cc34)ncn2)sc1C(=O)O [Example 37, 3-Ethoxy-5-{6-[2-(5-fluoro-2,7-dimethyl-benzofuran-3-yl)-ethylamino]-pyrimidin-4-yl}-thiophene-2-carboxylic acid] | 0.049 |
| CCOc1cc(-c2cc(NCCc3c(C)oc4c(OC)cc(Cl)cc34)ncn2)sc1C(=O)O [Example 38, 5-{6-[2-(5-Chloro-7-methoxy-2-methyl-benzofuran-3-yl)-ethylamino]-pyrimidin-4-yl}-3-ethoxy-thiophene-2-carboxylic acid] | 0.08 |
| CCOc1cc(-c2cc(NCCc3c(CC)oc4c(C)cc(F)cc34)ncn2)sc1C(=O)O [Example 39, 3-Ethoxy-5-{6-[2-(2-ethyl-5-fluoro-7-methyl-benzofuran-3-yl)-ethylamino]-pyrimidin-4-yl}-thiophene-2-carboxylic acid] | 0.112 |
| COc1cc(-c2cc(NCCc3c(C)sc4c(OC)ccc(Cl)c34)ncn2)ccc1C(=O)O [Example 40, 4-{6-[2-(4-Chloro-7-methoxy-2-methyl-benzo[b]thiophen-3-yl)-ethylamino]-pyrimidin-4-yl}-2-methoxy-benzoic acid] | 0.433 |
| CCSc1cc(-c2cc(NCCc3c(C)sc4c(C)cccc34)ncn2)ccc1C(=O)O [Example 42, 4-{6-[2-(2,7-Dimethyl-benzo[b]thiophen-3-yl)-ethylamino]-pyrimidin-4-yl}-2-ethylsulfanyl-benzoic acid] | 0.224 |
| CCSc1cc(-c2cc(NCCc3c(C)sc4ccccc34)ncn2)ccc1C(=O)O [Example 43, 2-Ethylsulfanyl-4-{6-[2-(2-methyl-benzo[b]thiophen-3-yl)-ethylamino]-pyrimidin-4-yl}-benzoic acid] | 0.497 |
| CCSc1cc(-c2cc(NCCc3c(C)oc4ccccc34)ncn2)ccc1C(=O)O [Example 44, 2-Ethylsulfanyl-4-{6-[2-(2-methyl-benzofuran-3-yl)-ethylamino]-pyrimidin-4-yl}-benzoic acid] | 1.38 |
| CCCc1cc(-c2cc(NCCc3c(C)sc4c(C)cc(F)cc34)ncn2)ccc1C(=O)O [Example 45, 4-{6-[2-(5-Fluoro-2,7-dimethyl-benzo[b]thiophen-3-yl)-ethylamino]-pyrimidin-4-yl}-2-propyl-benzoic acid] | 0.147 |
| Cc1sc2c(C)cc(F)cc2c1CCNc1cc(-c2cc(C(F)(F)F)c(C(=O)O)s2)ncn1 [Example 46, 5-{6-[2-(5-Fluoro-2,7-dimethyl-benzo[b]thiophen-3-yl)-ethylamino]-pyrimidin-4-yl}-3-trifluoromethyl-thiophene-2-carboxylic acid] | 0.03 |
